Data on five compounds can be found in ChEMBL document CHEMBL1152288, “Characterization of thien-2-yl 1S,2R-milnacipran analogues as potent norepinephrine/serotonin transporter inhibitors for the treatment of neuropathic pain” (J Med Chem, 2008).

Data set [1] relates to Rattus norvegicus. Nature of the data set: Antinociceptive activity in CD rat assessed as reduction in number of hind paw flinching at 30 mg/kg, po by formalin test. Further details: dose 30 mg/kg. In kind it is functional, organism-based.
Data set [2] is filed under the species Rattus norvegicus. The data set can be described thus: Reversal of pin-prick-induced neuropathic mechanical hyperalgesia in Harlan Sprague-Dawley rat sciatic nerve ligation model. Format: functional, organism-based.
Data set [3] can be described thus: AUC in Beagle dog at 5 mg/kg, iv or 30 mg/kg, po. In kind it is ADME, organism-based, Canis lupus familiaris. As to conditions: plasma.
The nature of data set [4]: Bioavailability in mouse at 5 mg/kg, iv or 30 mg/kg, po. Format: ADME, organism-based. As to conditions: in vivo.
Data set [5] is described as follows: Cmax in mouse at 5 mg/kg, iv or 30 mg/kg, po. In kind it is ADME, organism-based. Conditions: in vivo, read-out: Vdss.
Data set [6] can be described thus: Volume of distribution at steady state in Beagle dog at 5 mg/kg, iv or 30 mg/kg, po. In kind it is ADME, organism-based, Canis lupus familiaris. Conditions: in vivo, read-out: Vdss.
A short description of data set [7]: Volume of distribution at steady state in mouse at 5 mg/kg, iv or 30 mg/kg, po. Conditions: in vivo, read-out: Vdss. In kind it is ADME, organism-based.
Data set [8] in a line: Plasma clearance in mouse at 5 mg/kg, iv or 30 mg/kg, po. In kind it is ADME, organism-based.
Data set [9] in a line: Half life in mouse at 5 mg/kg, iv or 30 mg/kg, po. Format: ADME, organism-based. As to conditions: in vivo.
Data set [10] in a line: Half life in Beagle dog at 5 mg/kg, iv or 30 mg/kg, po. Format: ADME, organism-based, Canis lupus familiaris. As to conditions: in vivo.
Data set [11] can be described thus: Tmax in Beagle dog at 5 mg/kg, iv or 30 mg/kg, po. Format: ADME, organism-based, Canis lupus familiaris. As to conditions: in vivo.
A short description of data set [12]: Cmax in monkey at 5 mg/kg, iv or 30 mg/kg, po. In kind it is ADME, organism-based, Macaca mulatta. As to conditions: rhesus monkey, in vivo.
Data set [13] is described as follows: AUC in mouse at 5 mg/kg, iv or 30 mg/kg, po. Format: ADME, organism-based. As to conditions: plasma.
A short description of data set [14]: Half life in monkey at 5 mg/kg, iv or 30 mg/kg, po. Format: ADME, organism-based, Macaca mulatta. As to conditions: rhesus monkey, in vivo.
A short description of data set [15]: AUC in monkey at 5 mg/kg, iv or 30 mg/kg, po. As to conditions: rhesus monkey, plasma. Format: ADME, organism-based, Macaca mulatta.
The nature of data set [16]: Bioavailability in Beagle dog at 5 mg/kg, iv or 30 mg/kg, po. Format: ADME, organism-based, Canis lupus familiaris. Conditions: in vivo.
The nature of data set [17]: Tmax in mouse at 5 mg/kg, iv or 30 mg/kg, po. Format: ADME, organism-based. Conditions: in vivo.
A short description of data set [18]: Tmax in monkey at 5 mg/kg, iv or 30 mg/kg, po. In kind it is ADME, organism-based, Macaca mulatta. Conditions: rhesus monkey, in vivo.
A short description of data set [19]: Volume of distribution at steady state in monkey at 5 mg/kg, iv or 30 mg/kg, po. As to conditions: rhesus monkey, in vivo, read-out: Vdss. Format: ADME, organism-based, Macaca mulatta.
Data set [20] is described as follows: Plasma clearance in monkey at 5 mg/kg, iv or 30 mg/kg, po. In kind it is ADME, organism-based, Macaca mulatta. Conditions: rhesus monkey.
A short description of data set [21]: Renal clearance in monkey at 5 mg/kg, iv or 30 mg/kg, po. In kind it is ADME, organism-based, Macaca mulatta, Kidney. Conditions: rhesus monkey, in vivo; read-out: CL_renal.
A short description of data set [22]: Bioavailability in monkey at 5 mg/kg, iv or 30 mg/kg, po. Format: ADME, organism-based, Macaca mulatta. As to conditions: rhesus monkey, in vivo.
Data set [23] is described as follows: Renal clearance in Beagle dog at 5 mg/kg, iv or 30 mg/kg, po. In kind it is ADME, organism-based, Canis lupus familiaris, Kidney. Conditions: in vivo, read-out: CL_renal.
Data set [24] can be described thus: Plasma clearance in Beagle dog at 5 mg/kg, iv or 30 mg/kg, po. Format: ADME, organism-based, Canis lupus familiaris.
In data set [25] the target is Sodium-dependent serotonin transporter (Rattus norvegicus, UniProt P31652). In kind it is cell-based, HEK293.
Sequence of Sodium-dependent serotonin transporter (Rattus norvegicus, UniProt P31652) (P31652 whole entry): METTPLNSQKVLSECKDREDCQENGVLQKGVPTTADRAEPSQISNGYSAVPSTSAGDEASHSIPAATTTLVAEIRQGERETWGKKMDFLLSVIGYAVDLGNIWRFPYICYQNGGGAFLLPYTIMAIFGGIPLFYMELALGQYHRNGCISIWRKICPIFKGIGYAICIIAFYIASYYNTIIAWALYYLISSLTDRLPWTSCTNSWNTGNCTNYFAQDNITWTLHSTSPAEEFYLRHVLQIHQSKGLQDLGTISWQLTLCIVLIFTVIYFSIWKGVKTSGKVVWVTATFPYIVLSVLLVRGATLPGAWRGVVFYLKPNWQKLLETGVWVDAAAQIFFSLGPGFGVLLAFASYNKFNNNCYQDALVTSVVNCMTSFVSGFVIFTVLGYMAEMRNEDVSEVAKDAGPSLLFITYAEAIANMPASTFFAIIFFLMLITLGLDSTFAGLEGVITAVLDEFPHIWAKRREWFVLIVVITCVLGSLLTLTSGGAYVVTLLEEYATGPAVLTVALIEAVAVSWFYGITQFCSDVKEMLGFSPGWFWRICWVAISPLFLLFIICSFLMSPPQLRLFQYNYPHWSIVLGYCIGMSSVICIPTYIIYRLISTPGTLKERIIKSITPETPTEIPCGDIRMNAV
In data set [26] the test system is Rattus norvegicus. Nature of the data set: Antinociceptive activity in CD rat assessed as reduction in number of hind paw flinching at 60 mg/kg, po by formalin test. In kind it is functional. Also noted: scale not given: the % may be the effect or the level left.
Data set [27] concerns the target Sodium-dependent dopamine transporter (Rattus norvegicus, UniProt P23977). The data set can be described thus: biochemical.
Description: Displacement of 3,4-[ring-2,5,6-3H]dihydroxyphenylethylamine from rat synaptosomal DAT expressed in HEK293 cells by microplate scintillation counter
In a further data set the target is Transporter (Rattus norvegicus, UniProt Q63380). The data set can be described thus: biochemical.
Sequence of Transporter (Q63380 whole entry): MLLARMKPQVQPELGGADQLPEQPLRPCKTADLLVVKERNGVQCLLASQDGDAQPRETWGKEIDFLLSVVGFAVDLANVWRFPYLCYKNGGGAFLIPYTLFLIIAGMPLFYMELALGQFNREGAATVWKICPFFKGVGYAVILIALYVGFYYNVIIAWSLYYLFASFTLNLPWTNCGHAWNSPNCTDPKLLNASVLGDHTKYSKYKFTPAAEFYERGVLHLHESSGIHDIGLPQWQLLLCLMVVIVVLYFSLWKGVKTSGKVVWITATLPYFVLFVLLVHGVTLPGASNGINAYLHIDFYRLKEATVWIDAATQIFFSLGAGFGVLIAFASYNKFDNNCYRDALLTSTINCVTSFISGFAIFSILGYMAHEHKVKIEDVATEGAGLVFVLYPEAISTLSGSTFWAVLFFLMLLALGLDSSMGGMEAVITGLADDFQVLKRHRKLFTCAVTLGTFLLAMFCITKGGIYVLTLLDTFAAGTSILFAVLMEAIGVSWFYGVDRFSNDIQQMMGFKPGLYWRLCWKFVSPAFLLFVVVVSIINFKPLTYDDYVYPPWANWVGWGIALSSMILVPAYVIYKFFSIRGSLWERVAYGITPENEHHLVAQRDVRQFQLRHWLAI
The target of data set [28] is Sodium-dependent serotonin transporter (Homo sapiens, UniProt P31645). The data set can be described thus: biochemical.
Sequence of Sodium-dependent serotonin transporter (Homo sapiens, UniProt P31645) (P31645 whole entry): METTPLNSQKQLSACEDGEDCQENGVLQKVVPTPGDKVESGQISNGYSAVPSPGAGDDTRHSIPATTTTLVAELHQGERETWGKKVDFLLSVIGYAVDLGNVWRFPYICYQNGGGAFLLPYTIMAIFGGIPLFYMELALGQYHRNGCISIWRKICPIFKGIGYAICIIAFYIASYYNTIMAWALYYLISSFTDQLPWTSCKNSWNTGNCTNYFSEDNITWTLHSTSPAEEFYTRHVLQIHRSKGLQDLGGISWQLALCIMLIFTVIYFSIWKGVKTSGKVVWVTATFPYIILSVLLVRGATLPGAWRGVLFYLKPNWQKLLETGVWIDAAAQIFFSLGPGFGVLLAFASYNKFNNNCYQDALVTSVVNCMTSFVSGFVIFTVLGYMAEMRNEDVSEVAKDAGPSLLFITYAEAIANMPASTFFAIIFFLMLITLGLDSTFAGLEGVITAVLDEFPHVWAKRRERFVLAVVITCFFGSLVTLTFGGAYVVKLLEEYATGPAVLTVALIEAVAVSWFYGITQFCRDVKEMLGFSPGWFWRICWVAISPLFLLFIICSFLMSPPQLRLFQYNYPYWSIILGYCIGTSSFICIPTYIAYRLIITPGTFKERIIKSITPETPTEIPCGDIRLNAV
Description: Displacement of [alpha,beta-3H(N)]-5-hydroxytryptamine from human cloned SERT expressed in HEK293 cells by microplate scintillation counter
A short description of another data set: in vitro. As to conditions: human, Caco-2.
Data set [29] concerns the target Sodium-dependent dopamine transporter (Homo sapiens, UniProt Q01959). The data set can be described thus: biochemical.
Description: Displacement of 3,4-[ring-2,5,6-3H]dihydroxyphenylethylamine from human cloned DAT expressed in HEK293 cells by microplate scintillation counter
The nature of data set [30]: Partition coefficient, log P of the compound. In kind it is physicochemical. Conditions: octanol/water.
Data set [31] in a line: Metabolic stability in human liver microsomes assessed as systemic clearance at 1 uM after 15 mins by LC-MS/MS analysis. Format: ADME, Microsome. (Microsomes from liver hold many membrane-bound enzymes, among them those of drug oxidation.)
Data set [32] is described as follows: Lipophilicity, log D of the compound. Format: physicochemical. As to conditions: octanol/water.
Data set [33] in a line: Metabolic stability in rat liver microsomes assessed as systemic clearance at 1 uM after 15 mins by LC-MS/MS analysis. In kind it is ADME, Microsome.
Data set [34] has as its target Sodium-dependent noradrenaline transporter (Homo sapiens, UniProt P23975). Nature of the data set: biochemical.
Description: Displacement of Levo[ring-2,5,6-3H]norepinephrine from human cloned NET expressed in HEK293 cells by microplate scintillation counter
In data set [35] the target is Voltage-gated inwardly rectifying potassium channel KCNH2 (Homo sapiens, UniProt Q12809).
Sequence of Voltage-gated inwardly rectifying potassium channel KCNH2 (Q12809 whole entry): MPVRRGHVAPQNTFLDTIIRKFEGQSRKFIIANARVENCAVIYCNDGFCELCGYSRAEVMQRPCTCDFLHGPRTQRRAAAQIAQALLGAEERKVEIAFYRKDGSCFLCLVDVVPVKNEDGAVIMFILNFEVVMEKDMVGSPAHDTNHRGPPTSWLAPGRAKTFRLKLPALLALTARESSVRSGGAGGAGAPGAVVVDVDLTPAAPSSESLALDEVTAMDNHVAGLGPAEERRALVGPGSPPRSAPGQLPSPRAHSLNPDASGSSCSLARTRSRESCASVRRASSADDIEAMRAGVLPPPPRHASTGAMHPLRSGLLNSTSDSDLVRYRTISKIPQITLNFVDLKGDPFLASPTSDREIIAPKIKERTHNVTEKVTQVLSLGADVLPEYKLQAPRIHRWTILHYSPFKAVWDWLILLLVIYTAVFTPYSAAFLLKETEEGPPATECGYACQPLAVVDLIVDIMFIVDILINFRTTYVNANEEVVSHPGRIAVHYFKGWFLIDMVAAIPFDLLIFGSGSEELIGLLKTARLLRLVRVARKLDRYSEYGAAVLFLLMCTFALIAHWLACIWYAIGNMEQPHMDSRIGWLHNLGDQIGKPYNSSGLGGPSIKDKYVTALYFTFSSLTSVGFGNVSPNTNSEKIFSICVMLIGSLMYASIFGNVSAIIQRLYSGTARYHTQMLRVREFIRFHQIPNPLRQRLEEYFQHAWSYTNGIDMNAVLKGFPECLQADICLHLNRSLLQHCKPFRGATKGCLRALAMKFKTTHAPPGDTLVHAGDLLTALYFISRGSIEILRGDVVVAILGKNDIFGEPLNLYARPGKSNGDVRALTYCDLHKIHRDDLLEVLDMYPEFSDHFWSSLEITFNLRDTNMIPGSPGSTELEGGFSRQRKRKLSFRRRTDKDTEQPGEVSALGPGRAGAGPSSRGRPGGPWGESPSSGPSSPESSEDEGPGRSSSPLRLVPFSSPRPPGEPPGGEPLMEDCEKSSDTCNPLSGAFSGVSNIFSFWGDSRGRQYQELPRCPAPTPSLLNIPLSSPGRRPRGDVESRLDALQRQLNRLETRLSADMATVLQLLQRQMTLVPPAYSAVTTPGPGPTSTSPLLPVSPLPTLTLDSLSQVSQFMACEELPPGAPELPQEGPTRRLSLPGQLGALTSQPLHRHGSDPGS
Description: Inhibition of human ERG expressed in HEK293 cells by patch-clamp method

Calls of active or inactive are those of the source. No cut-off for these calls is given here.

Sequence of Sodium-dependent noradrenaline transporter (P23975 whole entry): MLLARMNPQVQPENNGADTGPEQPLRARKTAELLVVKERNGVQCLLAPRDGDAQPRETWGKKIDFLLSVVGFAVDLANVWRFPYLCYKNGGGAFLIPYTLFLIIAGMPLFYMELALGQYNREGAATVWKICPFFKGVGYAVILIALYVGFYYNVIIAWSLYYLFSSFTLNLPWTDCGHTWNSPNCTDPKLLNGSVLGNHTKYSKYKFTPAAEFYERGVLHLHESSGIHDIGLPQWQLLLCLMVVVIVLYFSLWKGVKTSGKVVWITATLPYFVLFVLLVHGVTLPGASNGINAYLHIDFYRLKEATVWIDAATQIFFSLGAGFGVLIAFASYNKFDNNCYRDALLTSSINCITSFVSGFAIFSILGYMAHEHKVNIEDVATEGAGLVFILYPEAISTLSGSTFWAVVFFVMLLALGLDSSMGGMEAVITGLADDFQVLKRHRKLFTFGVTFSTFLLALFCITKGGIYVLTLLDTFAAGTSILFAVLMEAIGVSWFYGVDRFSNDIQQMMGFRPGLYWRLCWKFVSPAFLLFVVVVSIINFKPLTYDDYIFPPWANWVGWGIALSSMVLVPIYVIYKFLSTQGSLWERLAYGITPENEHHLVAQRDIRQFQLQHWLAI
Sequence of Sodium-dependent dopamine transporter (Homo sapiens, UniProt Q01959) (Q01959 whole entry): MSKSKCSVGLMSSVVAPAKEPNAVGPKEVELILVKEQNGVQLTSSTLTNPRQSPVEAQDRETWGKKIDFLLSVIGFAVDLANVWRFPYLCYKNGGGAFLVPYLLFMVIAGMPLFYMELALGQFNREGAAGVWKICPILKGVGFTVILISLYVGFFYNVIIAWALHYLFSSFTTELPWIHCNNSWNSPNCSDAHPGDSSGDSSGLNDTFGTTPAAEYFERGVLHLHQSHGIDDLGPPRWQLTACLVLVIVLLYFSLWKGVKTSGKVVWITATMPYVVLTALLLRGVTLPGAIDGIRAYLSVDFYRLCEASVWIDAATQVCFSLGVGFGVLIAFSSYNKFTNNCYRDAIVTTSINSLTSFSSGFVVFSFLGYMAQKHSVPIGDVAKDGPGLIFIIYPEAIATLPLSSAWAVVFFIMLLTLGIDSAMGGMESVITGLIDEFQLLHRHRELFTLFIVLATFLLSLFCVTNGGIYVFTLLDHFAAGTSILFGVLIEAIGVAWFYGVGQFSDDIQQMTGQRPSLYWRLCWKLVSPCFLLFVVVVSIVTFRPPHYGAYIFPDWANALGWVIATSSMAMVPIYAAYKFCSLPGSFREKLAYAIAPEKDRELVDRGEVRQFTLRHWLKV
Sequence of Sodium-dependent dopamine transporter (Rattus norvegicus, UniProt P23977) (P23977 whole entry): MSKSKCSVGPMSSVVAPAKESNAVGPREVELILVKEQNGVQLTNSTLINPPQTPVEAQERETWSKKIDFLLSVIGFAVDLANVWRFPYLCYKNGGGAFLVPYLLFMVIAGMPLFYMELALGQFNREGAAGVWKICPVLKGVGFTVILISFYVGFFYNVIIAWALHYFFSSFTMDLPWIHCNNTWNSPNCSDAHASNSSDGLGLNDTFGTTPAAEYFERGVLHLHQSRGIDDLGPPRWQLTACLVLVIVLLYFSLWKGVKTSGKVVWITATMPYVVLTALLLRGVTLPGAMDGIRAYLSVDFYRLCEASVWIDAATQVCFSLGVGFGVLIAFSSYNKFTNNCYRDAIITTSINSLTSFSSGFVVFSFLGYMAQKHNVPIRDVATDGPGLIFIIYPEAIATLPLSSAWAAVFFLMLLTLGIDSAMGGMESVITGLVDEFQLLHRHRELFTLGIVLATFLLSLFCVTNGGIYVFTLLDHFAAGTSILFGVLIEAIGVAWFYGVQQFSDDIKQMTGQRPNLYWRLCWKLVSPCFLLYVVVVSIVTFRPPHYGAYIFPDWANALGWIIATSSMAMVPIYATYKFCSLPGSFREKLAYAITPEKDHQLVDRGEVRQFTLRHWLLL
Description for in vitro: Apparent permeability from apical to basolateral side of the human Caco-2 cells
Description for physchem: Dissociation constant, pKa of the compound

For the compound `C=CCN(CC=C)C(=O)[C@@]1(c2cccs2)C[C@H]1CN`, in the data set on Rattus norvegicus [1], the outcome was Active. Besides, in the data set filed under Rattus norvegicus [2], the Activity entry is “Dose-dependent effect”.

For `C=CCN(CC=C)C(=O)[C@@]1(c2cccs2)C[C@H]1CN.Cl`, the AUC in data set [3] came out at 17100 ng·h/mL; in data set [13], 3020 ng·h/mL; in [15] it was 6320 ng·h/mL. In addition, the results for the bioavailability in [4], in data set [16] and in [22] were 92%, 78% and 34%, respectively. The Cmax amounted to 1730 ng/mL in data set [5] and 905 ng/mL in data set [12]. The figures for the Vd in [6], in data set [7] and in data set [19] were 3.6 L/kg, 5.4 L/kg and 3.8 L/kg, respectively. Besides, the results for the clearance in data set [8], in data set [20] and in data set [24] were 135 mL/min/kg, 22.9 mL/min/kg and 19.2 mL/min/kg, respectively. The half-life is 47.4 min in data set [9], 144 min in data set [10] and 126 min in data set [14]. For the same compound, the results for the Tmax in data set [11], in [17] and in data set [18] were 1.8 h, 18 min and 4.5 h, respectively. Further, the CL renal in data set [21] was 3.9 mL/min/kg; in data set [23] it was 2 mL/min/kg.

With `C=CCN(CC)C(=O)[C@@]1(c2ccsc2)C[C@H]1CN`, the IC50 in [25] is 27 nM; in data set [27] it was greater than 10 µM; on Transporter it was 6.4 nM. Moreover, the Activity with Rattus norvegicus [26] is 56%.

Turning to `C=CCN(Cc1nccs1)C(=O)[C@@]1(c2cccs2)C[C@H]1CN`, the IC50 in data set [28] was 16 nM; in data set [29] it was greater than 10 µM; in data set [34], 13 nM. The same compound returned a Papp A→B in “in vitro” of 6.4 ×10⁻⁶ cm/s. Further, the logP in data set [30] was 1.6. The figures for the CLhep predicted at 1 µM in [31] and in data set [33] were 7 mL/min/kg and 47 mL/min/kg, respectively. In the data set “physchem”, this compound registered a pKa of 9.4. This compound came in with a logD in data set [32] of -0.4.

Take `C=CCN(C(=O)[C@@]1(c2cccs2)C[C@H]1CN)C1CC1`: the IC50 in data set [28] was 45 nM; in data set [29], greater than 10 µM; in data set [35], greater than 10 µM; in [34], 17 nM. Moreover, the Papp A→B in the data set “in vitro” came out at 17.8 ×10⁻⁶ cm/s. Further, the CLhep predicted at 1 µM is 5 mL/min/kg in data set [31] and 63 mL/min/kg in data set [33].

Broadly, the AUC is concentration integrated over time. Usually bioavailability stands for the share of a dose that reaches the circulation, judged against a reference dose that is usually intravenous. Usually half-life stands for how long it takes for the measured level to halve. The term Tmax denotes the time from dosing to the highest level. In general, IC50 refers to the concentration that gives 50% inhibition. Broadly, the Papp A→B is how fast a substance crosses the layer from the apical side. By logP is commonly meant a log measure of how a compound divides between an organic and an aqueous phase. In general, pKa refers to the pH at which an ionisable group is half protonated. One may read the logD as the decadic logarithm of the distribution of all forms, ionised or not, between an organic phase and buffer at a given pH.
